The values that follow are results of earlier work, collected in US9884123B2, “Ligand-targeted molecules and methods thereof” (INVICTUS ONCOLOGY PVT. LTD., priority 2012, dated 2018).

Test system in the first series: not given
As to conditions: Table 1, numeric value; test system not given; read-out: IC50.
The term IC50 denotes the concentration that gives 50% inhibition. Take `Cc1c[nH]c2c1[C@@]13C[C@@H]1CN(C(=O)c1cc4cc(NC(=O)c5cc6ccccc6o5)ccc4[nH]1)C3=CC2=O` [Adozelesin (DC1), Adozelesin]: the IC50 was 0.02 nM.

The same series, now with this note: Table 1, order of magnitude in words; test system not given.
For the molecule `CC[C@@H](/C=C(/C)[C@H]1C[C@H](OC)C[C@@H](O)C(C)(C)[C@]2(O)O[C@H](C[C@H](OC)[C@@H](O)C(=O)O1)C[C@H](OC)[C@@H]2O)CO` [Peloruside A], the IC50 entry was “Low nM”.

In the case of “Maytansinoid [Maytansinoid (DM1 and DM4)]”, the IC50 result is on record as “nM to”.

With `COc1cccc2c1C(=O)c1c(O)c3c(c(O)c1C2=O)C[C@@](O)(C(=O)CO)C[C@@H]3O[C@H]1C[C@H](N)[C@H](O)[C@H](C)O1` [Doxorubucin], the half-maximal inhibitory concentration (IC50) entry is recorded as “High nM”.

In the case of `CC(=O)O[C@@H](C)/C=C\C(=O)N[C@@H]1C[C@H](C)[C@H](C/C=C(C)/C=C/[C@H]2OC(C)(C)C[C@@]3(CO3)[C@@H]2O)O[C@@H]1C` [Meamycin], the IC50 result was “picomolar”.

Regarding `CCCCCCC[C@H](O)CC[C@H](O)[C@H]1CC[C@H]([C@H]2CC[C@H]([C@H](O)CCCCCCCCCC[C@@H](O)CC3=C[C@H](C)OC3=O)O2)O1` [27-hydroxybullatacin], the half-maximal inhibitory concentration (IC50) result is “Low pM”.

Regarding `COc1c(O)c2c(c3cc(C(=O)N4CCc5c4c(O)c(OC)c4[nH]c(C(=O)N6CC7CC78C6=CC(=O)c6[nH]cc(C)c68)cc54)[nH]c13)CCN2C(N)=O` (stereo not shown) [CC-1065], the 50% inhibitory concentration (IC50) entry is reported as “nM to”.

As for `COc1cc([C@@H]2c3cc4c(cc3[C@@H](O[C@@H]3O[C@@H]5CO[C@@H](c6cccs6)O[C@H]5[C@H](O)[C@H]3O)[C@H]3COC(=O)[C@H]23)OCO4)cc(OC)c1O` [Teniposide], the IC50 entry is recorded as “Low nM”.

On to Auristatins E and F, for which the IC50 result is recorded as “nM to”.

Turning to Calicheamicins, the IC50 result was “Picomolar”.

In the case of `C=C1C[C@H](C)C[C@@H]2CC=C[C@@H](C/C=C\C(=O)O[C@H]([C@@H](O)/C=C/[C@@H]3CC(C)=CCO3)C[C@@H]3O[C@H]3[C@@H](O)C1)O2` [Laulimalide], the half-maximal inhibitory concentration (IC50) result is “Low nM”.

The subject of another series is MDR cells.
Settings: not given
Consider `CC(=O)O[C@@H](C)/C=C\C(=O)N[C@@H]1C[C@H](C)[C@H](C/C=C(C)/C=C/[C@H]2OC(C)(C)C[C@@]3(CO3)[C@@H]2O)O[C@@H]1C` [Meamycin], for which the “Remarks: active against MDR cells too” value was “Active”.

For the molecule Epothilones A and B, the “Remarks: active against MDR cells too” value is on record as “Active”.
